The nature of data set [1]: Presensitization and dose finding with DNCB solutions on the forearm (rash / erythema, DTH response). The data set is classed as in vivo, human. The note with it: for erythema on forearm: sensitized subject. The source says: The subject then applied a 0.1%, 0.2%, and 0.3% solutions to separate small spots on the forearm.
Data set [2] has as its system HSV outbreak (cold sore on lower lip). The data set is described as follows: Treatment of an individual suffering from frequent and severe cold sores with topical DNCB at the site of the lesion. The data set is classed as in vivo, human. The source says:
The individual treated was one of the inventors. They are a person and was […] at the time of this treatment. The subject suffered from frequent cold sores on the lower lip. The outbreaks typically lasted 7-10 days and frequently longer. The subject had suffered from frequent cold sores most of their life. During the 6 months prior to this treatment, the outbreaks had been almost continuous. After getting over one outbreak, the next outbreak would begin often within a week.
In the morning they washed it off. A mild erythema in the area of the cold sore developed over 2-3 days and lasted a further 5 days, and the cold sore resolved in about 7 days, which was a typical duration for this individual or a slightly shorter duration than normal. […] Each outbreak would begin and completely resolve in one day. […] We think this may be because the immune system was recognizing not just the DNCB but also the herpes virus antigens with this second application. With the greater inflammation, the cold sore outbreak was worse than any of the outbreaks between the first and second DNCB treatments. […] The outbreak seemed to worsen as the inflammation associated with the DTH response worsened, and only lessened when the DTH response subsided.
When the outbreak subsided, the subject went another 6 months without any outbreaks to the present time.
For several months before and for the entire time described herein after the initial DNCB treatment, the subject took no antiviral medicines.

For data set [3], the system named is herpes labialis (HSV cold sore outbreaks). Put plainly: Clinical trial: treatment of herpes labialis by squaric acid dibutyl ester, time to and proportion of cold sore outbreaks after the sensitization dose. Conditions: for Average days to first outbreak after the sensitization dose: 120 days used if no outbreak in 120 days. The data set is classed as in vivo, human. The procedure:
Thirty patients are recruited meeting the following criteria:
In a screening interview, vital signs are recorded, and information is collected on any medications the patient is currently taking, previous and current treatments for cold sores, severity and duration of cold sores.
[…] Participants are told then to wait at least 2 weeks for their first treatment.
Throughout the study, the participants are asked to maintain a subject diary, in which they record each day any symptoms they experience, including fever, swelling, pain, redness, itching, burning, the size of any lesions, and any medications taken.
Visit 2: After the 2-week period to allow development of sensitivity to SADBE, upon the beginning of his or her next outbreak (within 72 hours of the first signs of an outbreak), each participant is swabbed at the site of the herpes labialis lesion with a 0.5% solution of SADBE in DMSO.
Visit 3: Upon the next distinct outbreak at least 2 weeks after the previous treatment at visit 2, study diaries are collected. If the diary reflects redness, blistering, or burning greater than 0.5 cm beyond the clinical lesion with the previous SADBE treatment, the dosage of SADBE is decreased to 0.1%. If the diary reflects no redness or inflammation attributable to SADBE treatment, dosage is increased to 2%. Otherwise, dosage is maintained at 0.5%. Participants are swabbed at the site of the herpes labialis lesion with the SADBE solution.
If the hypersensitivity reaction produced by SADBE is excessive, patients are treated with a topical steroidal antiinflammatory cream. When a patient requests, outbreaks are treated with oral valacyclovir until the outbreak resolves.
For at least 6 months after visit 2, patients maintain their diaries. Every two months the diaries are collected.
A total of 46 patients have been enrolled in the study and have not dropped out.
The p value was calculated using the Fischer's two-tailed exact test.
The average days to the first outbreak after the sensitization dose was also measured. […] The A: placebo, 0% SADBE in DMSO.

Data set [4] can be described thus: Clinical trial of SADBE: rash (erythema) from the sensitization dose. The data set is classed as in vivo, human. The note with it: pooled treatment groups B and C, 2% SADBE in DMSO. The source says: Visit 1: Upon entering the study, patients are sensitized to squaric acid dibutyl ester (SADBE) by dipping a cotton-tipped swab in a 2% solution of SADBE in DMSO and swabbing a 1 cm^2 area on the forearm. Participants are told then to wait at least 2 weeks for their first treatment.

The subject of a further data set is warts. Conditions: intralesional injection together with antigens versus antigen alone; differences not statistically significant; US 20050175634; cited from earlier work.
Setting [5] is: third treatment, 0.1% DNCB solution on cold sore.

The values that follow come from patent US12128098B2, “Non-specific delayed-type hypersensitivity response to treat herpes simplex virus infection” (Squarex, LLC, priority 2015, dated 2024).

“And” between values parts separate entries of the source, which are not always exact repeats. Equal values may be shown once. “Also recorded” adds a separate entry of the source. Marks after values point to notes of the source that are not given here.

As to `O=[N+]([O-])c1ccc(Cl)c([N+](=O)[O-])c1` [DNCB, 1-chloro-2,4-dinitrobenzene], the erythema on forearm result in data set [1] (0.1% DNCB solution) is on record as “almost no erythema”; in data set [1] (0.2% DNCB solution) it was “mild but easily seen erythema”. In data set [1] (2% DNCB solution in acetone, cotton-tipped swab, two spots on forearm, first application), the “rash after presensitizing application” value is given as “No rash developed”. The “duration of rash after second application” value in data set [1] (2% DNCB solution on forearm, two weeks after the sensitizing dose) is listed as 3 weeks. Moreover, the “rash after second application” value in data set [1] (2% DNCB solution on forearm, two weeks after the sensitizing dose, different spots) was “very strong but localized rash”. For the same compound, the “severity and duration of subsequent outbreaks” value in data set [2] (4 weeks following the first 0.2% DNCB treatment of the lip lesion) is “much less severe and of much shorter duration than before”. In addition, the “time without any outbreak after treatment” value in data set [2] (after the third treatment (0.1% DNCB), to the present time) is given as 6 months; in data set [2] (following the second DNCB treatment at the site of a lesion), 6 months. Also, the “erythema in the area of the cold sore” value in data set [2] (first application of 0.2% DNCB in acetone to cold sore on lower lip, left overnight) was “mild erythema”. For the same compound, the “time to resolution of the treated cold sore” value in data set [2] (first application of 0.2% DNCB in acetone to the lip lesion, typical outbreaks before lasted 7-10 days) is “about 7 days”. Besides, the “frequency of cold sore outbreaks after treatment” value in data set [2] (next 4 weeks following the first 0.2% DNCB treatment) was “approximately weekly”. Also, the “duration of each subsequent outbreak” value in data set [2] (outbreaks in the 4 weeks following the first 0.2% DNCB treatment) is listed as “one”. In addition, in data set [2] (second application of 0.2% DNCB in acetone to lip lesion, about two months after the first), the “inflammation and erythema with the application” value is “more severe than they had been with the first application”. Also, the results for the “duration of the treated HSV outbreak” value in data set [2] (second application of 0.2% DNCB to lip lesion) and in data set [2] (setting [5]) were “about 7 days” and “about 10 days”, respectively. Further, in data set [2] (setting [5]), the “DTH response at the cold sore” value was “moderate DTH response”.
With `CCCCOc1c(OCCCC)c(=O)c1=O` [SADBE, 3,4-Dibutoxy-3-cyclobutene-1,2-dione], the “Persons having an outbreak within X days after the sensitization dose” value in data set [3] (<120 days, group B) is 6 (of 16); in data set [3] (<120 days, group C), 4 (of 15); in data set [3] (within 30 days, group B (2% SADBE in DMSO sensitization, 0.5% treatment solution)), 2 (of 16); in data set [3] (within 30 days, group C (2% SADBE in DMSO sensitization, 0.2% treatment solution)), 3 (of 15); in data set [3] (within 30 days, pooled groups B + C (of 31), p vs placebo 0.26), 5; in data set [3] (within 45 days, group B), 4 (of 16). Besides, the “Persons having an outbreak within X days after the sensitization dose” value in data set [3] (within 45 days, group C) is on record as 4 (of 15); in data set [3] (within 45 days, pooled groups B + C (of 31), p vs placebo 0.099), 8; in data set [3] (within 60 days, group B), 5 (of 16); in data set [3] (within 60 days, group C), 4 (of 15); in data set [3] (within 60 days, pooled groups B + C (of 31), p vs placebo 0.0583) it was 9. The “Days to first new outbreak after sensitization dose on upper arm” value in data set [3] (each patient, 2% SADBE applied to the inner aspect of the upper arm) is 37 days and 41 days and 50 days and 80 days and 91 days and >120 days (19×) and 14 days (2×) and 15 days and 18 days and 34 days. The “Average days to first outbreak after the sensitization dose” value in data set [3] (group B, n 16) is recorded as 88.5 days; in data set [3] (group C, n 15) it was 94.7 days; in data set [3] (pooled groups B + C, n 31, p=0.041 vs placebo, t test), 91.5* days. In data set [3] (pooled groups B and C), the “proportion who had a first outbreak between 30 and 120 days after receiving the sensitization dose” value was 5 of 26. Besides, the “effect on future HSV outbreaks” value in data set [3] (single topical sensitization dose of 2% SADBE in DMSO on the upper arm, no application at the lesion) is listed as “prevented future HSV outbreaks; also recorded: usually did not have a subsequent outbreak during the study time”. The “median time to the next HSV outbreak versus placebo” value in data set [3] (treated patients who did not develop a visible erythema at the site of application) is recorded as “longer median time to the next HSV outbreak than patients receiving placebo”. Also, the “median time to the next outbreak, outbreaks occurring in the 21 days after the sensitization dose excluded” value in data set [3] (treatment group, counting from the day of the sensitization dose) is given as “greater than 120 days”. Besides, in data set [3] (treatment group, outbreaks in first 21 days excluded), the “median time to the next outbreak counting from day 21 after the sensitization dose” value is recorded as “greater than 99 days”. Also, the “subjects who had a rash (erythema) from the sensitization dose” value in data set [4] was 17 of 28.
On to “GM-CSF: cytokine used as immune response enhancer”, for which, in the data set with warts, the “fraction of patients responding to treatment” value is “A larger fraction of patients receiving interferon or GM-CSF together with the antigens responded to treatment than patients receiving antigen alone”.
For interferon alpha, the “fraction of patients responding to treatment” value in the data set with warts is “A larger fraction of patients receiving interferon or GM-CSF together with the antigens responded to treatment than patients receiving antigen alone”.
